Test results published in patent publication US20240075004A1, “VERY-LONG-CHAIN POLYUNSATURATED FATTY ACIDS, ELOVANOID HYDROXYLATED DERIVATIVES, AND METHODS OF USE” (The Board of Supervisors of Louisiana State University and …, priority 2020, published 2024).

What was measured:
[1] = system: pro-inflammatory transcriptome and pro-homeostatic pathways in RPE single-cells; assay: UOS transcriptome in RPE single-cells; assay type: cell-based; conditions: 96 per sample
Excerpt: Dots in box plots represent expression of the gene for a single RPEC (total of 96 per sample). P<0.001 (***), P<0.01 (**), One-way Anova, with Post-Hoc Tukey HSD test for multiple comparisons.

[2] = system: RPE and PRC; assay: Subretinal injection of OAβ in WT mice: fundus/OCT and ZO-1 whole flat mount of RPE; assay type: in vivo, C57BL/6J WT mice; conditions: for PRC degeneration (fundus, OCT): ELV injected alone (200 ng subretinal), six-month-old WT mice, 7 days; for RPE morphology (ZO-1 flat mount) / protection of PRC (OCT, PRC layer thickness): co-injected with OAβ, followed by topical application during 7 days
Description: All animal experiments were performed according to ARVO Statement for the Use of Animals in Ophthalmic and Vision Research, and the protocol was approved by LSU Health New Orleans' Institutional Animal Care and Use Committee (IACUC). 6-month-old 5×FAD mice (stock number: 34848-JAX, The Jackson Laboratory, Bar Harbor, ME, USA), co-overexpress FAD mutant forms of human amyloid precursor protein (the Swedish mutation: K670N, M671L; the Florida mutation: I716V; and the London mutation: V7171) and presenilin 1 (PS1, encoded by Psen1: M146L, L286V) transgenes under transcriptional control of the neuron-specific mouse Thy1 promoter. 5×FAD mice were hemizygotes with respect to the transgenes and non-transgenic WT littermates. Genotyping was performed by PCR of tail DNA. All analyses were carried out blind with respect to the mice genotype. For the subretinal injection, 6-month-old C57BL/6J mice were anesthetized by an intraperitoneal injection of ketamine/xylazine, pupils dilated with 1.0% tropicamide (Akorn, IL, USA); and 0.5% Proparacaine Hydrochloride (Akorn) was applied for topical anesthesia. Eyes were punctured with a 30-gauge needle between the corneoscleral junction and the ora serrata into the vitreous cavity without disturbing the lens. Compounds were delivered to the subretinal region using a 33-gauge blunt needle attached to a 5 μl Hamilton syringe (Hamilton Company, Reno, NV, USA) under a dissecting microscope. Non-injected mice were used as negative control while the PBS injected mice were used for sham. The injection volume was 2 μl containing PBS, 10 μM of OAβ, 10 μM of OAβ+200 ng ELV-N-32, 200 ng ELV-N-32 alone, 10 μM of OAβ+200 ng ELV-N-34 or 200 ng ELV-N-34 alone (n=12/group). All groups received topical drops: PBS only or ELV-N-32 (200 nM) or ELV-N-34 (200 nM), twice a day for 3 or 7 days.
For the whole mount RPE staining, eyeballs were enucleated and pre-fixed in 4% PFA for 15 min. Then the eye cup containing RPE sheet were fixed in 4% PFA for 30 min, washed in PBS 3× following the blocking step for 1 h at room temperature. The immunostaining was performed by incubating primary antibody (ZO-1) for 48 h at 4° C. Then the eye cups were washed 3× with PBS and incubated with the secondary antibody for 12 h at 4° C. The primary human RPE cells as well as mouse eye cups were embedded in ProLong™ Gold Antifade Mounting medium (Thermo Fisher Scientific) between two glass coverslips. Pictures were taken with Olympus FV1200 microscope (Olympus, Japan). Images were analyzed by software ImageJ (rsb.info.nih.gov/ij/).
7 days post-injection, mice were anesthetized with ip ketamine/xylazine, pupil dilated by topical 1.0% tropicamide and placed in a custom-built holder for OCT imaging (body temperature maintained at 38° C. with a heat pad). Retinas were imaged along the horizontal meridian through the optic nerve head using a Heidelberg Spectralis HRA OCT system (Heidelberg Engineering, Heidelberg, Germany). Axial resolution is […]. The raw OCT B-scans cross-sectional images were exported with the scale in m and opened in ImageJ (http//imagej.nih.gov/ij). The PRC layer thickness was defined as the width from the tip of the outer nuclear layer, right after the outer plexiform layer, to the outer segments of PRC. Three measurements were made on the same scan and averaged. Mean and standard error of the mean (SEM) were calculated (n=4/group). Students' T-test was used to calculate statistical significance and a P-value less than 0.05 was considered significant.

[3] = system: senescence, autophagy, AMD, ECM remodeling and apoptosis genes; assay: RPE and retina gene expression (qPCR) after subretinal OAβ (1-42) injection; assay type: in vivo, C57BL/6J WT mice; conditions: OAβ subretinally administered in WT mice
Description: All animal experiments were performed according to ARVO Statement for the Use of Animals in Ophthalmic and Vision Research, and the protocol was approved by LSU Health New Orleans' Institutional Animal Care and Use Committee (IACUC). 6-month-old 5×FAD mice (stock number: 34848-JAX, The Jackson Laboratory, Bar Harbor, ME, USA), co-overexpress FAD mutant forms of human amyloid precursor protein (the Swedish mutation: K670N, M671L; the Florida mutation: I716V; and the London mutation: V7171) and presenilin 1 (PS1, encoded by Psen1: M146L, L286V) transgenes under transcriptional control of the neuron-specific mouse Thy1 promoter. 5×FAD mice were hemizygotes with respect to the transgenes and non-transgenic WT littermates. Genotyping was performed by PCR of tail DNA. All analyses were carried out blind with respect to the mice genotype. […]
For the in vivo experiments, eyeballs were enucleated and anterior segment containing the cornea, lens and iris removed and the retina separated from the rest of the eyecup (RPE/choroid). […] Quantitative PCR was performed in a CFX-384 Real-Time PCR system (Bio-Rad). The expression of target genes was normalized to the geometric mean of housekeeping genes and relative expression was calculated by the comparative threshold cycle method (ΔΔCT).

[4] = system: human RPE cells; assay: Oxidative-stress and Erastin induced cell death in human RPE cells; assay type: cell-based
[5] = system: degenerating neurons of hypothalamus; assay: Fluoro-Jade B staining of organotypic slices of hypothalamus; assay type: cell-based; conditions: 500 nM, 48 h incubation, adult obese diabetic db/db mice
Excerpt: Fluoro-Jade b (F-Jb) stains degenerating neurons.

[6] = system: TP53 and IL8; assay: Human adipocytes treated with IL1β: TP53 and IL8 expression by Taqman Real time PCR; assay type: cell-based
Excerpt: A) experimental design. B) expression levels of TP53 and IL8 in human diabetic and non-diabetic adipocytes by the means of Tagman Real time PCR.

[7] = system: IL6; assay: IL6 (marker of SASP) induced by IL1β in diabetic hypothalamus; assay type: cell-based; conditions: diabetic db/db mice hypothalamus, different effects in female and male mice
[8] = system: Adiponectin; assay: Adiponectin levels in diabetic hypothalamus and adipose tissue

Compound: CC/C=C\C[C@H](O)\C=C/C=C/C=C/[C@H](O)C/C=C\C/C=C\CCCCCCCCCCCCC(=O)O [ELV-N-32]
- UOS up-regulation of pro-inflammatory transcriptome and down-regulation of pro-homeostatic pathways [1]: suppress these changes
- PRC degeneration (fundus, OCT) [2]: did not yield PRC degeneration
- RPE morphology (ZO-1 flat mount) [2]: restoration of RPE morphology
- protection of PRC (OCT, PRC layer thickness) [2]: protection of PRC
- OAβ-activated senescence program (p16INK4a, MMP1, p53, p21, p27, Il-6 gene expression, SASP secretome) followed by RPE and PRC demise [3]: blunt these events and elicit protection to both cells
- oxidative-stress and Erastin induced cell deaths [4]: counteracted

Compound: CC/C=C\C[C@H](O)\C=C/C=C/C=C/[C@H](O)C/C=C\C/C=C\CCCCCCCCCCCCCCC(=O)O [ELV-N-34]
- PRC degeneration (fundus, OCT) [2]: did not yield PRC degeneration
- RPE morphology (ZO-1 flat mount) [2]: restoration of RPE morphology
- protection of PRC (OCT, PRC layer thickness) [2]: protection of PRC
- Fluoro-Jade b (F-Jb) signal (neuroprotection) [5]: decrease of F-Jb signal
- OAβ-activated senescence program (p16INK4a, MMP1, p53, p21, p27, Il-6 gene expression, SASP secretome) followed by RPE and PRC demise [3]: blunt these events and elicit protection to both cells
- IL8 brought down (elevated by IL1β) ([6]; 500 nM, both diabetic and non-diabetic adipocytes): around 40 folds
- levels of TP53 mRNA ([6]; human adipocytes from diabetic patient treated with IL1β): down to non-diabetic control levels
- effect of IL1β (expression levels of TP53 and IL8) ([6]; human diabetic adipocytes): revert the effect
- levels of IL6 (marker of SASP) [7]: reduced
- adiponectin in subcutaneous adipose tissue (SAT) and visceral adipose tissue (VAT) [8]: Differential effect
- levels of Adiponectin ([8]; ELV34 treatment): increased
- adiponectin in diabetic hypothalamus ([8]; female and males): trend of increase
